Patent US10233186B2, “Inhibitors of activin receptor-like kinase” (BLUEPRINT MEDICINES CORPORATION, priority 2016, dated 2019)

Assays:
[1] = molecular target: T1, ALK2 R206H (GST-tagged mutant ALK2) (Homo sapiens, UniProt Q04771, R206H); experiment: ALK binding assay (LANTHASCREEN TR-FRET competitive binding, displacement of Kinase Tracer 178); settings: ALK2 R206H, LANTHASCREEN TR-FRET competitive binding; read-out: Binding Assay (IC50)
T1 construct: purchased Carna Bioscience or ThermoFisher 09-148 or PV6232
T1 sequence (Q04771 21-509 R206H): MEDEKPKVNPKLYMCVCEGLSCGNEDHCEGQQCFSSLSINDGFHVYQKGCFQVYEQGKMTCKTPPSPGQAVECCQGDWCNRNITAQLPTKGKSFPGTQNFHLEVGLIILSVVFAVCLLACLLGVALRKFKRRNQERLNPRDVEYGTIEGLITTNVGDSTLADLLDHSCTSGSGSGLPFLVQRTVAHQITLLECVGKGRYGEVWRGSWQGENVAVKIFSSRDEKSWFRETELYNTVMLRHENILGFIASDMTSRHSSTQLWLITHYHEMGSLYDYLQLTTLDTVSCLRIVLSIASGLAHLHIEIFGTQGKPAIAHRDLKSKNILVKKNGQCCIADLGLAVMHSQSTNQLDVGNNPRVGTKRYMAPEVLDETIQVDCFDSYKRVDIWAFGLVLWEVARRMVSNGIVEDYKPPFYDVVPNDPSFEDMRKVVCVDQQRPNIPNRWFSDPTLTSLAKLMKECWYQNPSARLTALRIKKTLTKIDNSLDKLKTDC

[2] = molecular target: T2, human ALK2 R206H (Homo sapiens, UniProt Q04771, R206H); experiment: Cell-based ALK2-R206H cell activity assay (Smad1-Ser463/Ser465 phosphorylation by AlphaLISA in HEK293-ALK2-R206H cells); settings: read-out: Cell Line (Cell Assay IC50)
T2 construct: expressed in transfected cells; host or cells: HEK293 (ATCC CRL1573), lentivirus transduction, blasticidin selection
T2 sequence (Q04771 21-509 R206H): T1 sequence (Q04771 21-509 R206H)
Outline: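 Stable HEK293 cells expressing C-terminally FLAG-tagged human ALK2 R206H (lentiviral, blasticidin-selected) were treated with compounds in 10-point, 3-fold dilutions from 10 μM or 1 μM top, in duplicate. Smad1 Ser463/Ser465 phosphorylation was read by AlphaLISA.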

Structure (SMILES)	IC50 [1] [nM]	IC50 [2] [nM]
CC(C)N1CCC(c2ccc(-c3cc4c(N5CCN(C(=O)C6CCC6)CC5)ccnn4c3)cc2)C1 (stereo not shown) [Compound 249]	< 10	< 100
CCN1CCC(c2ccc(-c3cc4c(N5CCN(C(=O)C6CCC6)CC5)ccnn4c3)cc2)CC1 [Compound 250]	< 10	< 100
CCN1CCC(c2ccc(-c3cc4c(N5CCN(C(=O)[C@H]6CC6(C)C)CC5)ccnn4c3)cc2)C1 (stereo partly shown) [Compound 251]	< 10	< 100
CCN1CCC(c2ccc(-c3cc4c(N5CCN(C(=O)C6CC6)[C@H](C)C5)ccnn4c3)cc2)CC1 [Compound 252]	< 10	100 to 500
CC(C)N1CC[C@H](c2ccc(-c3cc4c(N5CCN(C(=O)C6CC6)[C@H](C)C5)ccnn4c3)cc2)C1 [Compound 253]	< 10	100 to 500
CC(C)N1CC[C@@H](c2ccc(-c3cc4c(N5CCN(C(=O)C6CC6)[C@H](C)C5)ccnn4c3)cc2)C1 [Compound 254]	< 10	< 100
Cc1cc([C@@H]2CCN(C(C)C)C2)ccc1-c1cc2c(N3CCN(C(=O)C4CC4)CC3)ccnn2c1 [Compound 255]	< 10	100 to 500
Cc1cc([C@H]2CCN(C(C)C)C2)ccc1-c1cc2c(N3CCN(C(=O)C4CC4)CC3)ccnn2c1 [Compound 256]	< 10	100 to 500
CC(C)N1CCCCC1c1ccc(-c2cc3c(N4CCN(C(=O)C5CC5)CC4)ccnn3c2)cc1 (stereo not shown) [Compound 257]	< 10	< 100
N#C[C@H]1C[C@@H]1C(=O)N1CCN(c2ccnn3cc(-c4ccc(C5(F)CCCNC5)cc4)cc23)CC1 (stereo partly shown) [Compound 258]	< 10	< 100
CCN1CCN(c2ccc(-c3cc4c(N5CCN(C(=O)C6CC6)CC5)ccnn4c3)cc2)C(=O)C1 [Compound 259]	10 to 50	> 500
O=C(C1CC1)N1CCN(c2ccnn3cc(-c4ccc(N5CCNC6(COC6)C5)cc4)cc23)CC1 [Compound 260, (4-(6-(4-(2-oxa-5,8-diazaspiro[3.5]nonan-8-yl)phenyl)pyrrolo[1,2-b]pyridazin-4-yl)piperazin-1-yl)(cyclopropyl)methanone]	< 10	100 to 500
CC(C)N1CCN(c2ccc(-c3cc4c(N5CCN(C(=O)C6CC6)CC5)ccnn4c3)cc2)CC1 [Compound 261]	< 10	< 100
CCN1CCN(c2ccc(-c3cc4c(N5CCN(C(=O)C6CCC6)CC5)ccnn4c3)cc2)CC1 [Compound 262]	< 10	100 to 500
CCN1CCN(c2ccc(-c3cc4c(N5CCN(C(=O)C6CC6)C[C@@H]5C)ccnn4c3)cc2)CC1 [Compound 263]	< 10	100 to 500
CCN1CCN(c2ccc(-c3cc4c(N5CCN(C(=O)C6CC6)CC5)ccnn4c3)cc2)C[C@H]1C [Compound 264]	< 10	100 to 500
CCN1CCN(c2ccc(-c3cc4c(N5CCN(C(=O)C6CC6)CC5)ccnn4c3)cc2)C[C@@H]1C [Compound 265]	< 10	< 100
CC(C)N1CCC(c2ccc(-c3cc4c(N5CCN(C(=O)C6CC6)CC5)ccnn4c3)nc2)CC1 [Compound 266]	< 10	< 100
CC(C)N1CCC(c2ccc(-c3cc4c(N5CCN(C(=O)C6CC6)CC5)ccnn4c3)cn2)CC1 [Compound 267]	< 10	< 100
CCN1CCC(Oc2ccc(-c3cc4c(N5CCN(C(=O)C6CC6)CC5)ccnn4c3)cc2)CC1 [Compound 268]	10 to 50	100 to 500
CCN1CCCC(Oc2ccc(-c3cc4c(N5CCN(C(=O)C6CC6)CC5)ccnn4c3)cc2)C1 (stereo not shown) [Compound 269]	< 10	< 100
CCN1CCC(COc2ccc(-c3cc4c(N5CCN(C(=O)C6CC6)CC5)ccnn4c3)cc2)C1 (stereo not shown) [Compound 270]	< 10	< 100

Structure (SMILES)	IC50 [1] [nM]	IC50 [2] [nM]
CC(C)N1CCC(O)(c2ccc(-c3cc4c(N5CCN(C(=O)C6CC6)CC5)ccnn4c3)cc2)C1 (stereo not shown) [Compound 271]	< 10	100 to 500
CCN1CCN(c2ccc(-c3cc4c(N5CCN(C(=O)N6CCC6)CC5)ccnn4c3)cc2)CC1 [Compound 272]	10 to 50	100 to 500
O=C(C1CC1)N1CCN(c2ccnn3cc(-c4ccc(N5CCN(CCO)CC5)cc4)cc23)CC1 [Compound 274, cyclopropyl(4-(6-(4-(4-(2-hydroxyethyl)piperazin-1-yl)phenyl)pyrrolo[1,2-b]pyridazin-4-yl)piperazin-1-yl)methanone]	< 10	100 to 500
CCNC(=O)N1CCN(c2ccnn3cc(-c4ccc(C5CCN(C(C)C)CC5)cc4)cc23)CC1 [Compound 275, N-ethyl-4-(6-(4-(1-isopropylpiperidin-4-yl)phenyl)pyrrolo[1,2-b]pyridazin-4-yl)piperazine-1-carboxamide]	< 10	< 100
CCNC(=O)N1CCN(c2ccnn3cc(-c4ccc([C@@H]5CCCN(C(C)C)C5)cc4)cc23)CC1 [Compound 276]	< 10	< 100
CCNC(=O)N1CCN(c2ccnn3cc(-c4ccc([C@H]5CCCN(C(C)C)C5)cc4)cc23)CC1 [Compound 277]	< 10	< 100
CCN1CCC(c2ccc(-c3cc4c(N5CCN(C(=O)C6CC6)CC5)ccnn4c3)cc2)C(F)C1 (stereo not shown) [Compound 278]	< 10	< 100
CCN1CC[C@H](c2ccc(-c3cc4c(N5CCN(C(=O)C6CC6)CC5)ccnn4c3)cc2)C(F)C1 (stereo partly shown) [Compound 279]	10 to 50	100 to 500
CCN1CC[C@@H](c2ccc(-c3cc4c(N5CCN(C(=O)C6CC6)CC5)ccnn4c3)cc2)C(F)C1 (stereo partly shown) [Compound 280]	10 to 50	100 to 500
CCN1CCC(c2ccc(-c3cc4c(N5CCN(C(=O)[C@H]6C[C@H]6F)CC5)ccnn4c3)cc2)CC1 [Compound 281]	< 10	< 100
CC(C)N1CC(F)C(c2ccc(-c3cc4c(N5CCN(C(=O)C6CC6)CC5)ccnn4c3)cc2)C1 (stereo not shown) [Compound 282]	< 10	< 100
CC(C)N1CC[C@@H](c2ccc(-c3cc4c(N5CCN(C(=O)C6CC6)CC5)ccnn4c3)cc2F)C1 [Compound 283]	< 10	100 to 500
CC(C)N1CC[C@H](c2ccc(-c3cc4c(N5CCN(C(=O)C6CC6)CC5)ccnn4c3)cc2F)C1 [Compound 284]	< 10	< 100
CCN1CCC(c2ccc(-c3cc4c(N5CCN(C(=O)OC(C)C)CC5)ccnn4c3)cc2)CC1 [Compound 285]	< 10	< 100
CCOC(=O)N1CCN(c2ccnn3cc(-c4ccc(C5CCN(CC)CC5)cc4)cc23)C[C@H]1C [Compound 286]	< 10	100 to 500
CCOC(=O)N1CCN(c2ccnn3cc(-c4ccc([C@@H]5CCCN(C(C)C)C5)cc4)cc23)CC1 [Compound 287]	< 10	< 100
CCOC(=O)N1CCN(c2ccnn3cc(-c4ccc([C@H]5CCCN(C(C)C)C5)cc4)cc23)CC1 [Compound 288]	< 10	< 100
CCNC(=O)N1CCN(c2ccnn3cc(-c4ccc(N5CCN(C(C)C)CC5)cc4)cc23)CC1 [Compound 289]	< 10	< 100
CCNC(=O)N1CCN(c2ccnn3cc(-c4ccc(C5CCN(C(C)C)CC5)cn4)cc23)CC1 [Compound 290]	< 10	< 100
CCN1CCN(c2ccc(-c3cc4c(N5CCN(C(=O)[C@@H]6C[C@H]6F)CC5)ccnn4c3)cc2)CC1 [Compound 292]	< 10	< 100
CCN1CCN(c2ccc(-c3cc4c(N5CCN(C(=O)[C@H]6C[C@H]6F)CC5)ccnn4c3)cc2)CC1 [Compound 293]	< 10	< 100
CCOC(=O)N1CCN(c2ccnn3cc(-c4ccc(N5CCN(C(C)C)CC5)cc4)cc23)CC1 [Compound 295]	< 10	< 100
